In patent US20230382865A1, “HISTONE DEMETHYLASE 5 INHIBITORS AND USES THEREOF” (DANA-FARBER CANCER INSTITUTE, INC., priority 2018, published 2023):
Several values for one entry are separate records, joined by “and”; a condition that tells them apart may be missing. Equal values may be shown once.

How the values were obtained:
KDM5B = KDM5B (Homo sapiens, UniProt Q9UGL1); assay: KDM5B alphascreen activity assay; type: biochemical; settings: Table 1, KDM5B alphascreen activity assay
Procedure: All subsequent steps were carried out in assay buffer (50 mM HEPES, pH 7.5, 0.1% (wt/vol) BSA and 0.01% (vol/vol) Tween-20). […] The final concentration of DMSO was 1%. […] Data were normalized to the (no-enzyme) control, and the IC50 values were determined via nonlinear regression curve fit using GraphPad Prism 7.

[1] = tested on: MYC target genes in MM.1S cells; assay: Gene expression profile by RNA-seq with gene set enrichment analysis in MM.1S cells; type: cell-based, human; settings: RNA-seq after treatment in MM.1S cells
Description: To clarify the molecular mechanism whereby KDM5A mediates MM cell growth, the gene expression profile using RNA-seq after the treatment with pck82 in MM.1S cells was examined.

luciferized molp8 cells = assay: In vivo mouse study, bioluminescence imaging (BLI) of luciferized molp8 cells; set-up: species or system Mice; reference not given here; settings: one individual mouse (cage, EP)
Procedure: Mice were injected intravenously with luciferized molp8 cells. Half million cells per mice. After 1 week, the tumor was observed using bioluminescence imaging (BLI). The normalized total flux was measured over 17 days (FIG. 12; Table 5) Mice were randomized into control and treatment. Treatment lasted for 21 days. Animals with 15% weight loss was terminated.

H3K4me3 mark = assay: ChIP-seq analysis of H3K4me3 mark; type: cell-based

Chain of KDM5B (Q9UGL1 whole entry): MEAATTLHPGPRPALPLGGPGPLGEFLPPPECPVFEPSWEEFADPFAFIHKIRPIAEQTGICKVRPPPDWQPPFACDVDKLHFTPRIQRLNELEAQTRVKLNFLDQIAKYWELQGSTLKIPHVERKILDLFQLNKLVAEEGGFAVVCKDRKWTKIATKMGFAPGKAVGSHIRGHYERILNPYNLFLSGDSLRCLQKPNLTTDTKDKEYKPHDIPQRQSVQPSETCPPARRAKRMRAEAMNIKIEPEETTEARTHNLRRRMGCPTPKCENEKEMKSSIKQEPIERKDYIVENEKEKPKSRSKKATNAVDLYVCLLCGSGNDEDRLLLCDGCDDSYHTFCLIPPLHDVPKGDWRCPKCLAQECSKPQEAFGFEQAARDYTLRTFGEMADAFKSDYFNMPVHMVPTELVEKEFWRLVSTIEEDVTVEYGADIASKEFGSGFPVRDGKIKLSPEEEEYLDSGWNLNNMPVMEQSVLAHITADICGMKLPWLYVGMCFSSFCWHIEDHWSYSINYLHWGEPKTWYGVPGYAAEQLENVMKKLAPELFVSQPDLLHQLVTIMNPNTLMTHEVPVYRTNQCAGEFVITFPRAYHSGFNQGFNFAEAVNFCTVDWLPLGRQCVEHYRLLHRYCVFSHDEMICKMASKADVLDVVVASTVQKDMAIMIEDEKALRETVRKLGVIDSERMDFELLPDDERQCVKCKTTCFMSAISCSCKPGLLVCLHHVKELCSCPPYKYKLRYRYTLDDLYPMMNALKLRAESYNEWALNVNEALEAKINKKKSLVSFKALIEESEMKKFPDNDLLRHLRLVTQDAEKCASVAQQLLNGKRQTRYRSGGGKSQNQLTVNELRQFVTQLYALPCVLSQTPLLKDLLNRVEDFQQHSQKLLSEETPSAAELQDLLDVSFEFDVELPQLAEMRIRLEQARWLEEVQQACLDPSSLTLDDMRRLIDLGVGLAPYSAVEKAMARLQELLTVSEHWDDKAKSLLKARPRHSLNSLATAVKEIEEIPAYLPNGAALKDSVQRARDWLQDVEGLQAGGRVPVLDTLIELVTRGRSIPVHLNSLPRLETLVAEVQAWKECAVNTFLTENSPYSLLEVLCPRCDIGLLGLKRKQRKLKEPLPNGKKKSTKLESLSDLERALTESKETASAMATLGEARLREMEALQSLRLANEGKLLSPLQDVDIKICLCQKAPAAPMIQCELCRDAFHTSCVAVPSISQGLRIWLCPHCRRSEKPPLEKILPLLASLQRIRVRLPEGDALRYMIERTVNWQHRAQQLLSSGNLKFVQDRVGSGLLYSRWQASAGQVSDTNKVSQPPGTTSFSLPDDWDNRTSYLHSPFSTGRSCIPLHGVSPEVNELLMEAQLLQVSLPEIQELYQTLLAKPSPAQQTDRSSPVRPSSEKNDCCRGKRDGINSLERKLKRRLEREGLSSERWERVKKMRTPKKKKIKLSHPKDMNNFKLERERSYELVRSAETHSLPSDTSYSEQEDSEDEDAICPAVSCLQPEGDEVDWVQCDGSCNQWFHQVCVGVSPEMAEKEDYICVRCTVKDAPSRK

Structure (SMILES)	IC50 (KDM5B) [µM]	expression of MYC target genes (gene set enrichment analysis) [1]	Normalized total flux from BLI imaging (luciferized molp8 cells; Day 0)	Normalized total flux from BLI imaging (luciferized molp8 cells; Day 3)	Normalized total flux from BLI imaging (luciferized molp8 cells; Day 7)	Normalized total flux from BLI imaging (luciferized molp8 cells; Day 10)	Normalized total flux from BLI imaging (luciferized molp8 cells; Day 14)	Normalized total flux from BLI imaging (luciferized molp8 cells; Day 17)	Normalized total flux from BLI imaging (luciferized molp8 cells; Day 21)	H3K4me3 mark, global (H3K4me3 mark; ChIP-seq after treatment)	H3K4me3 mark at the loci of MYC and its targets (H3K4me3 mark; ChIP-seq, targets whose expression is down-regulated after treatment)
CC(C)c1c(-c2ccccc2)[nH]c2c(C#N)cnn2c1=O [CPI455]	7.92	–	–	–	–	–	–	–	–	–	–
CCN(CCN(C)C)C(=O)CNCc1cc(C(=O)Oc2ccc(OC(C)C)cc2OC(C)C)ccn1 [PCK82]	–	decreased expression of MYC target genes	1	3.764 and 4.5 and 4.255 and 3.625 and 2.035 and 2.296 and 3.238 and 0.2149 and 0.3339	0.5646 and 9.722 and 8.546 and 8.656 and 13.51 and 1.677 and 8.169 and 0.2301 and 39.37	6.63 and 19.33 and 0.422 and 44.375 and 23.38 and 25.97 and 24.97 and 1.029 and 6.22	191.7 and 165.6 and 135.1 and 93.75 and 380.3 and 314.2 and 275.1 and 75.66 and 5.654	306.3 and 4.861 and 358.2 and 465.625 and 258.8 and 133.2 and 277.2 and 359 and 565.6	45 and 3.404 and 435.5 and 58.66 and 1309 and 1224 and 847.4 and 121.6 and 1078	globally increased H3K4me3 mark	did not increase this mark
